Read-outs that look alike come from different tables or passages of the source.
How the values were obtained:
Format in all cases: cell-based
[1] = tested on: Epidermophyton floccosum IFO 9045; test: antimicrobial activity, MIC
[2] = tested on: Aspergillus niger ATCC 9642; test: antimicrobial activity, MIC
[3] = tested on: Staphylococcus epidermidis ATCC 12228; test: antimicrobial activity, MIC
[4] = tested on: Microsporum gypseum IFO 8231; test: antimicrobial activity, MIC
[5] = tested on: Staphylococcus aureus Terajima; test: antimicrobial activity, MIC
[6] = tested on: Microsporum audounii IFO 6074; test: antimicrobial activity, MIC
[7] = tested on: Trichophyton mentagrophytes IFO 5812; test: antimicrobial activity, MIC
[8] = tested on: Debaryomyces kloeckeri IFO 0015; test: antimicrobial activity, MIC
[9] = tested on: Streptococcus faecalis IFO 12964; test: antimicrobial activity, MIC
[10] = tested on: Bacillus subtilis ATCC 6633; test: antimicrobial activity, MIC
Candida albicans Yu-1200 = test: antimicrobial activity, MIC
[11] = tested on: Microsporum cookei IFO 8303; test: antimicrobial activity, MIC
[12] = tested on: Staphylococcus aureus FDA 209P; test: antimicrobial activity, MIC
[13] = tested on: Candida albicans NHL 4019; test: antimicrobial activity, MIC
[14] = tested on: Staphylococcus aureus Smith; test: antimicrobial activity, MIC
[15] = tested on: Trichophyton tonsurans IFO 5928; test: antimicrobial activity, MIC
[16] = tested on: Fusarium moniliforme IAM 5062; test: antimicrobial activity, MIC
[17] = tested on: Trichophyton mentagrophytes QM 248; test: antimicrobial activity, MIC
[18] = tested on: Helminthosporium sesamum IAM 5012; test: antimicrobial activity, MIC
[19] = tested on: Trichophyton rubrum NHL J; test: antimicrobial activity, MIC; conditions: Trichophyton rubrum NHL J
[20] = tested on: Pyricularia oryzae IAM 5016; test: microbe, parasite or virus in culture
Saccharomyces ruxii 6507 = test: antimicrobial activity, MIC; conditions: Saccharomyces ruxii 6507
[21] = tested on: Micrococcus lysodeixticus IFO 3333; test: antimicrobial activity, MIC
[22] = tested on: Saccharomyces cerevisiae ATCC 9763; test: antimicrobial activity, MIC
[23] = tested on: Aspergillus oryzae IMF 4014; test: antimicrobial activity, MIC
[24] = tested on: Penicillium chrysogenum ATCC 6010; test: antimicrobial activity, MIC
[25] = tested on: Cladosporium fulvum IAM 5006; test: antimicrobial activity, MIC
[26] = tested on: Gibberella fujikuroi IAM 8046; test: antimicrobial activity, MIC
Sarcina lutea ATCC 9341 = test: antimicrobial activity, MIC
[27] = Epidermophyton floccosum, IFO9045, Epidermophyton floccosum IFO 9045, read-out: MIC
[28] = Staphylococcus epidermidis ATCC 12228
[29] = Nannizzia gypsea, IFO8231, Microsporum gypseum IFO 8231, read-out: MIC
[30] = Staphylococcus aureus, read-out: MIC
[31] = Microsporum, IFO6074, Microsporum audounii IFO 6074, read-out: MIC
[32] = Trichophyton mentagrophytes, IFO5812, Trichophyton mentagrophytes IFO 5812, read-out: MIC
[33] = Enterococcus faecalis, IFO12964, Streptococcus faecalis IFO 12964, read-out: MIC
[34] = Staphylococcus aureus, FDA209P, read-out: MIC
[35] = Candida albicans, NHL4019, Candida albicans NHL 4019, read-out: MIC
[36] = Trichophyton tonsurans, IFO5928, Trichophyton tonsurans IFO 5928, read-out: MIC
[37] = Trichophyton mentagrophytes, QM248, Trichophyton mentagrophytes QM 248, read-out: MIC
[38] = Helminthosporium, IAM5012, Helminthosporium sesamum IAM 5012, read-out: MIC
[39] = Trichophyton rubrum, read-out: MIC
[40] = Pyricularia oryzae, IAM5016, Pyricularia oryzae IAM 5016
[41] = Micrococcus lysodeixticus IFO 3333
[42] = Saccharomyces cerevisiae, ATCC9763, Saccharomyces cerevisiae ATCC 9763, read-out: MIC
[43] = Penicillium chrysogenum ATCC 6010
[44] = Fulvia fulva, IAM5006, Cladosporium fulvum IAM 5006, read-out: MIC
[45] = Aspergillus niger, ATCC9642, Aspergillus niger ATCC 9642, read-out: MIC
[46] = Staphylococcus epidermidis, ATCC12228, Staphylococcus epidermidis ATCC 12228, read-out: MIC
[47] = Bacillus subtilis, ATCC6633, Bacillus subtilis ATCC 6633, read-out: MIC
[48] = Paraphyton cookei, IFO8303, Microsporum cookei IFO 8303, read-out: MIC
[49] = Fusarium verticillioides, IAM5062, Fusarium moniliforme IAM 5062, read-out: MIC
[50] = Micrococcus, IFO3333, Micrococcus lysodeixticus IFO 3333, read-out: MIC
[51] = Aspergillus oryzae, IMF4014, Aspergillus oryzae IMF 4014, read-out: MIC
[52] = Penicillium chrysogenum, ATCC6010, Penicillium chrysogenum ATCC 6010, read-out: MIC
[53] = Fusarium fujikuroi, IAM8046, Gibberella fujikuroi IAM 8046, read-out: MIC
[54] = Micrococcus luteus, ATCC9341, Sarcina lutea ATCC 9341, read-out: MIC

Measured: MIC

CCCOc1ccccc1C(=CSCc1ccccc1)n1ccnc1 (single isomer, unassigned) [Compound 3, 1-(2-n-propyloxyphenyl)-1-imidazolyl-2-benzylthioethylene]
0.78 µg/mL: [21]; [41]
< 0.2 µg/mL: [4]; [29] | [6]; [31] | [7]; [32] | [15]; [36] | [17]; [37] | [18]; [38] | [19]; [39] | [20]; [40] | Saccharomyces ruxii 6507; read-out: MIC | [22]; [42]
1.56 µg/mL: [10]; Bacillus subtilis ATCC 6633 | Sarcina lutea ATCC 9341; Sarcina lutea ATCC 9341
3.12 µg/mL: [1]; [27] | [3]; [28]
50 µg/mL: [13]; [35] | [24]; [43]
0.39 µg/mL: [2]; Aspergillus niger ATCC 9642
25 µg/mL: [26]; Gibberella fujikuroi IAM 8046
> 100 µg/mL: Candida albicans Yu-1200; YU1200, read-out: MIC | [16]; Fusarium moniliforme IAM 5062
12.5 µg/mL: [12]; [34] | [25]; [44]
6.25 µg/mL: [5]; [30] | [8]; IFO0015, read-out: MIC | [9]; [33] | [11]; Microsporum cookei IFO 8303 | [14]; [30] | [23]; Aspergillus oryzae IMF 4014

CCCOc1ccccc1C(=CSCc1ccccc1)n1ccnc1 (single isomer, unassigned) [Compound 4]
3.12 µg/mL: [21]; [41] | [24]; [43]
> 100 µg/mL: Candida albicans Yu-1200
6.25 µg/mL: [8] | [10]; Bacillus subtilis ATCC 6633 | Sarcina lutea ATCC 9341; Sarcina lutea ATCC 9341
0.78 µg/mL: [16]; Fusarium moniliforme IAM 5062 | [26]; Gibberella fujikuroi IAM 8046
25 µg/mL: [12] | [13]; Candida albicans NHL 4019 | [25]; Cladosporium fulvum IAM 5006
1.56 µg/mL: [2]; Aspergillus niger ATCC 9642 | [11]; Microsporum cookei IFO 8303 | [23]; Aspergillus oryzae IMF 4014
< 0.2 µg/mL: [4]; Microsporum gypseum IFO 8231 | [6]; Microsporum audounii IFO 6074 | [7]; Trichophyton mentagrophytes IFO 5812 | [15]; Trichophyton tonsurans IFO 5928 | [17]; Trichophyton mentagrophytes QM 248 | [18]; Helminthosporium sesamum IAM 5012 | [19] | [20]; Pyricularia oryzae IAM 5016 | Saccharomyces ruxii 6507 | [22]; Saccharomyces cerevisiae ATCC 9763
12.5 µg/mL: [3]; [28] | [5] | [9]; Streptococcus faecalis IFO 12964 | [14]
1.78 µg/mL: [1]; Epidermophyton floccosum IFO 9045

CCCCOc1ccccc1C(=CSCc1ccccc1)n1ccnc1 (single isomer, unassigned) [Compound 8]
3.12 µg/mL: [10]; [47] | Sarcina lutea ATCC 9341; [54]
< 0.2 µg/mL: [6]; [31] | [15]; [36] | [19]; [39] | [20]; [40] | Saccharomyces ruxii 6507; read-out: MIC | [22]; [42]
25 µg/mL: [12]; [34]
0.39 µg/mL: [4]; [29] | [7]; [32] | [17]; [37]
12.5 µg/mL: [2]; [45] | [11]; [48] | [16]; [49] | [23]; [51] | [24]; [52]
0.78 µg/mL: [18]; [38]
> 100 µg/mL: [9]; [33] | Candida albicans Yu-1200; YU1200, read-out: MIC | [13]; [35] | [25]; [44]
1.56 µg/mL: [21]; [50]
6.25 µg/mL: [1]; [27] | [3]; [46] | [5]; [30] | [8]; IFO0015, read-out: MIC | [14]; [30] | [26]; [53]

CCCCCCOc1ccccc1C(=CSC)n1ccnc1 (single isomer, unassigned) [Compound 27]
0.39 µg/mL: [2]; [45]
25 µg/mL: [13]; [35]
< 0.2 µg/mL: [1]; [27] | [4]; [29] | [6]; [31] | [7]; [32] | [11]; [48] | [15]; [36] | [16]; [49] | [17]; [37] | [18]; [38] | [19]; [39] | [20]; [40] | Saccharomyces ruxii 6507; read-out: MIC | [22]; [42] | [23]; [51] | [26]; [53]
3.12 µg/mL: [25]; [44] | Sarcina lutea ATCC 9341; [54]
6.25 µg/mL: [3]; [46] | [5]; [30] | [10]; [47]
12.5 µg/mL: [9]; [33] | [12]; [34] | [14]; [30]
1.56 µg/mL: [8]; IFO0015, read-out: MIC | [21]; [50] | [24]; [52]
50 µg/mL: Candida albicans Yu-1200; YU1200, read-out: MIC

CCCCCOc1ccccc1C(=CSCC)n1ccnc1 (single isomer, unassigned) [Compound 34]
12.5 µg/mL: [5]; [30] | [9]; [33] | [12]; [34] | [14]; [30]
0.78 µg/mL: [2]; [45] | [8]; IFO0015, read-out: MIC
50 µg/mL: Candida albicans Yu-1200; YU1200, read-out: MIC | [13]; [35]
1.56 µg/mL: [1]; [27] | [11]; [48] | [23]; [51] | Sarcina lutea ATCC 9341; [54]
< 0.2 µg/mL: [4]; [29] | [6]; [31] | [7]; [32] | [15]; [36] | [17]; [37] | [18]; [38] | [19]; [39] | [20]; [40] | Saccharomyces ruxii 6507; read-out: MIC | [22]; [42] | [26]; [53]
25 µg/mL: [25]; [44]
3.12 µg/mL: [3]; [46] | [10]; [47] | [24]; [52]
0.39 µg/mL: [16]; [49] | [21]; [50]

CCCOc1ccccc1C(=CSCCC)n1ccnc1 (single isomer, unassigned) [Compound 39]
50 µg/mL: Candida albicans Yu-1200; YU1200, read-out: MIC
< 0.2 µg/mL: [6]; [31] | [19]; [39] | [20]; [40]
0.39 µg/mL: [4]; [29] | [7]; [32] | [15]; [36] | [17]; [37] | [18]; [38] | [22]; [42]
6.25 µg/mL: [8]; IFO0015, read-out: MIC | [21]; [50]
1.56 µg/mL: [1]; [27] | [2]; [45] | [11]; [48] | [24]; [52]
25 µg/mL: [3]; [46] | [5]; [30] | [9]; [33] | [12]; [34] | [13]; [35] | [14]; [30] | [25]; [44]
12.5 µg/mL: [10]; [47] | Sarcina lutea ATCC 9341; [54]
0.78 µg/mL: [16]; [49] | Saccharomyces ruxii 6507; read-out: MIC | [23]; [51] | [26]; [53]

CCCCSC=C(c1ccccc1OCCC)n1ccnc1 (single isomer, unassigned) [Compound 46]
1.56 µg/mL: [1]; [27] | [2]; [45] | [11]; [48] | [16]; [49] | [18]; [38] | [24]; [52]
0.39 µg/mL: [26]; [53]
6.25 µg/mL: [3]; [46] | [10]; [47] | Sarcina lutea ATCC 9341; [54]
50 µg/mL: Candida albicans Yu-1200; YU1200, read-out: MIC
0.78 µg/mL: Saccharomyces ruxii 6507; read-out: MIC | [23]; [51]
25 µg/mL: [13]; [35]
< 0.2 µg/mL: [4]; [29] | [6]; [31] | [7]; [32] | [15]; [36] | [17]; [37] | [19]; [39] | [20]; [40] | [22]; [42]
3.12 µg/mL: [21]; [50]
12.5 µg/mL: [5]; [30] | [8]; IFO0015, read-out: MIC | [9]; [33] | [12]; [34] | [14]; [30] | [25]; [44]
